Data published in EP1094830B1, “USE OF COMPOSITION COMPRISING AT LEAST ONE SUBSTANCE WITHIN THE GROUP GnRH-ANALOGUES FOR TREATMENT OF OBSESSIVE-COMPULSIVE DISORDER (OCD)” (Läkartjänster I Västsverige AB, priority 1998, dated 2005).
Entries after “also recorded” stand apart in the source; their conditions may differ.

Tests used:
[1] = test system: obsessive-compulsive neurosis (nowadays called obsessive-compulsive disorder, OCD); details: cited from earlier work
OCD-symptoms [2] = experiment: Case study: treatment of a patient with a severe form of OCD; type: in vivo, man; details: earlier treatment of the same patient(s) with anti-androgenic drugs, before the GnRH-analogue
Experimental: The GnRH-analogue triptorelin is available in a pharmaceutical preparation (Decapeptyl® Depot). In the use of this preparation, an injection is administered containing triptorelin embonate in a dose corresponding to 3.75 mg triptorelin. Injections with this dose are given intramuscularly. They should be repeated every fourth week from the first injection. […] A then person was referred to a psychiatric specialist clinic from another qualified psychiatrist for evaluation and treatment of a severe condition of OCD. […] The situation when the patient came to the clinic was that they had sickness pension since more than ten years. They lived alone in a small apartment which they hardly ever left. Obsessions and compulsive rituals occupied most of their time. They repeated against their will meaningless strings of words silently during several hours every day. They felt they had to read the newspaper according to certain ritual patterns; if they did anything wrong, they had to start again from the beginning. Sometimes, it took them the whole day to read the newspaper. […] Among other things, they placed their books so that the covers were strictly oriented along north-south lines. Their contacts with other persons were highly restraint and mainly limited to some relatives. […] The clinical diagnosis was that they suffered from a very serious form of OCD. […]

[3] = test system: symptoms of androgenic hyperactivity; experiment: Case study: treatment of the patient's symptoms of androgenic hyperactivity; type: in vivo, man; details: same patient, before triptorelin
Experimental: An endocrinological investigation was performed, based upon their symptoms of androgenic hyperactivity.

OCD-symptoms [4] = experiment: Case study: treatment of a patient with a severe form of OCD; type: in vivo, man
Experimental: The GnRH-analogue triptorelin is available in a pharmaceutical preparation (Decapeptyl® Depot). In the use of this preparation, an injection is administered containing triptorelin embonate in a dose corresponding to 3.75 mg triptorelin. Injections with this dose are given intramuscularly. They should be repeated every fourth week from the first injection.
A detailed case study of the treatment of a patient with a severe form of OCD is disclosed in the following, as supporting evidence of the effect of the method.
A then person was referred to a psychiatric specialist clinic from another qualified psychiatrist for evaluation and treatment of a severe condition of OCD.
The situation when the patient came to the clinic was that they had sickness pension since more than ten years. They lived alone in a small apartment which they hardly ever left. Obsessions and compulsive rituals occupied most of their time. They repeated against their will meaningless strings of words silently during several hours every day. They felt they had to read the newspaper according to certain ritual patterns; if they did anything wrong, they had to start again from the beginning. Sometimes, it took them the whole day to read the newspaper. […] Among other things, they placed their books so that the covers were strictly oriented along north-south lines. Their contacts with other persons were highly restraint and mainly limited to some relatives.
The clinical diagnosis was that they suffered from a very serious form of OCD. They were also found to be intelligent without any signs of any other mental illness or personality disorder. Thus, it was a clearly defined case of OCD.
During long periods of time the patient had been treated with the drugs which presently are considered to have the best effect against OCD. In the treatment of the patient they had also been given supportive psychotherapy.
In order to overcome this, treatment with the long-acting GnRH-analogue triptorelin (Decapeptyl® Depot) was given every fourth week as deep intramuscular depot injections with a dose corresponding to 3.75 mg triptorelin in each injection.

[5] = after another two months (four months in all), 3.75 mg intramuscular every fourth week

Compound | effect in treatment of obsessive-compulsive neurosis ([1]; a few patients, Casas et al. 1986) | effect on OCD ([1]; later investigations by other researchers) | effect on OCD (OCD-symptoms [2]) | effect on symptoms of androgenic hyperactivity [3] | effect on OCD-symptoms (OCD-symptoms [4]; [5]) | obsessive thoughts (OCD-symptoms [4]; [5]) | recovery from very severe form of OCD (OCD-symptoms [4]; after three months of treatment) | effect on OCD-symptoms (OCD-symptoms [4]; after two months treatment, 3.75 mg intramuscular every fourth week) | effect on OCD-symptoms (OCD-symptoms [4]; initially during treatment, 3.75 mg triptorelin deep intramuscular depot injection every fourth week)
CC(=O)O[C@]1(C(C)=O)CC[C@H]2[C@@H]3C=C(Cl)C4=CC(=O)[C@@H]5C[C@@H]5[C@]4(C)[C@H]3CC[C@@]21C [cyproterone acetate] | effective | failed to demonstrate any effect | without success; also recorded: without any major improvement; also recorded: without any obvious effect on their OCD | without any significant effects | – | – | – | – | –
triptorelin | – | – | – | – | dramatically better | all obsessive thoughts had disappeared | substantially recovered | began to feel better | accentuation of the patients OCD-symptoms
